Results published in patent publication US12291607B2, “Polymer material and method for producing same” (Osaka University, priority 2019, dated 2025).

Assay: Solubility of host (Ac-CDAA) and guest (ADAA) monomers in third polymerizable monomers
Type: physicochemical
Method: The phrase “the host group-containing polymerizable monomer and the guest group-containing polymerizable monomer are dissolved in the third polymerizable monomer” means that the mixture of the host group-containing polymerizable monomer and the guest group-containing polymerizable monomer in a total amount of 1 part by weight or more is dissolved per 100 parts by weight of the third polymerizable monomer at a temperature of 20° C. It is preferable that the mixture of the host group-containing polymerizable monomer and the guest group-containing polymerizable monomer in a total amount of 1 part by weight or more, and particularly preferably 10 parts by weight or more, is dissolved per 100 parts by weight of the third polymerizable monomer at a temperature of 20° C.
The solubility of Ac-CDAA (host group-containing polymerizable monomer) in the following various monomers (third polymerizable monomers) was as follows: • less than 1 g for 100 g of 2EHA (20° C.) • less than 1 g for 100 g of OctA (octyl acrylate) (20° C.) • 10 g or more for 100 g of 2MEA (20° C.) • 10 g or more for 100 g of 4HBA (20° C.) • 10 g or more for 100 g of DMAA (20° C.)
Further, the solubility of ADAA (guest group-containing polymerizable monomer) in the following various monomers (third polymerizable monomers) was as follows: • less than 1 g for 100 g of 2EHA (20° C.) • less than 1 g for 100 g of OctA (20° C.) • 10 g or more for 100 g of 2MEA (20° C.) • 10 g or more for 100 g of 4HBA (20° C.) • 10 g or more for 100 g of DMAA (20° C.)

Compound: C=CC(=O)NC12CC3CC(CC(C3)C1)C2 [ADAA, N-(1-adamantyl) acrylamide]
- solubility in 2EHA (for 100 g of 2EHA (20° C.)): less than 1 g
- solubility in 2MEA (for 100 g of 2MEA (20° C.)): ≥ 10 g
- solubility in 4HBA (for 100 g of 4HBA (20° C.)): ≥ 10 g
- solubility in DMAA (for 100 g of DMAA (20° C.)): ≥ 10 g
- solubility in OctA (for 100 g of OctA (octyl acrylate) (20° C.)): less than 1 g
